Data on 48 compounds can be found in PMC5607274, “An iterative compound screening contest method for identifying target protein inhibitors using the tyrosine-protein kinase Yes” (Scientific Reports, 2017).

For this assay, the target named is T1, human recombinant Yes [a.a. 2–543 (end)] (Homo sapiens, UniProt P07947).
T1 construct: human recombinant Yes [a.a; 2–543 (end)]; purchased BPS Bioscience 40488
T1 sequence (P07947 2-543): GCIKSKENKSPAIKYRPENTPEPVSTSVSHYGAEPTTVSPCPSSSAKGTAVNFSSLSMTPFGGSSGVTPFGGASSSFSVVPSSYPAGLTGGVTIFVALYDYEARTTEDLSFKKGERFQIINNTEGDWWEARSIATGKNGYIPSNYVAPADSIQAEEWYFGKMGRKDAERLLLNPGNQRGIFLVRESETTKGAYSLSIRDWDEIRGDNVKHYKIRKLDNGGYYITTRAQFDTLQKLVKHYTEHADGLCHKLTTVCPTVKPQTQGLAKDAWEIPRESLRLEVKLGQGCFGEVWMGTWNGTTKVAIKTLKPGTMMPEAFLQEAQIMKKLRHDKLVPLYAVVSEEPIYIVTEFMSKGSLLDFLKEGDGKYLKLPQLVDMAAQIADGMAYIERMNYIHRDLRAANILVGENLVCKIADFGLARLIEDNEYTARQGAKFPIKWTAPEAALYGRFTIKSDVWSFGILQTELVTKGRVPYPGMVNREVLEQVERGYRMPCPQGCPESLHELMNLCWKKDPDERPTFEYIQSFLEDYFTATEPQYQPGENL
As to the kind of experiment: ADP-Glo kinase assay, inhibition rates of Yes phosphorylation activity (first and second screening). The class given is biochemical. Conditions: first screening; mean of n = 4 wells; 10 μmol L−1 compound. The procedure, abridged: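 Hits from a first pass were rescreened after re-dissolution from fresh powder. The first pass reported the mean inhibition rate of quadruplicate wells per compound. Activity was that of recombinant human Yes [a.a. 2–543] kinase, read out with the ADP-Glo ADP-detection method.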
As for `CC1=Nc2nc(N3CCCCC3)c(C#N)c3c4c(nc(c23)N1)N(c1ccc(C)cc1)C(=O)C4` [Compound Z55516559], the “First screening IR (inhibition rate)” value was -13%. With `Cc1ccc(N2C(=O)Cc3c2nc(N)c2c(N)nc(N4CCCC4)c(C#N)c32)cc1C` [Compound Z55589600], the “First screening IR (inhibition rate)” value is 15%.

For the compound `CC(C)c1ccc(N2C(=O)Cc3c2nc(N)c2c(N)nc(N4CCCC4)c(C#N)c32)cc1` [Compound Z55589601], the “First screening IR (inhibition rate)” value stood at 6%. In the case of `O=C(O)c1ccc2nc3c(nc2c1)-c1cccc2cccc-3c12` [Compound Z55723243], the “First screening IR (inhibition rate)” value is listed as 15%. In the case of `Cc1ccc(-c2cc(C(=O)O)c3c(C)nn(-c4ccc(C)cc4C)c3n2)cc1` [Compound Z55871149] it was 40%; in that of `Cc1nn(CCC#N)c2nc(-c3ccc(Br)cc3)cc(C(F)(F)F)c12` [Compound Z55874673], -4%; in that of `Cc1nn(CCc2nn[nH]n2)c2nc(-c3ccccc3)cc(C(F)(F)F)c12` [Compound Z55874741], 1%. Under `Cc1ccc(S(=O)(=O)NC(=O)c2cc(C)n(CCCn3ccnc3)c2C)cc1` [Compound Z55892329] stands -11%; under `Cc1cc(C)c(C)c(S(=O)(=O)Nc2ccccc2C(=O)N2CCN(c3cccc(C(F)(F)F)c3)CC2)c1C` [Compound Z56576419], 21%.

In the case of `CCc1cccc(OCC(=O)C(C#N)c2nc3ccccc3[nH]2)c1` (stereo not drawn) [Compound Z56595958], the “First screening IR (inhibition rate)” value is given as 2%. In the case of `CCOC(=O)c1cc(-c2ccc(C#N)cc2)nc2c1c(C)nn2CCC#N` [Compound Z56631499] it was -7%. Consider `CCOC(=O)c1cc(-c2ccc3c(c2)OCCO3)nc2c1c(C)nn2CCC#N` [Compound Z56631515], for which the “First screening IR (inhibition rate)” value amounted to 17%. Regarding `CC(C)n1ncc2c(C(=O)O)cc(-c3ccccc3F)nc21` [Compound Z56643534], the “First screening IR (inhibition rate)” value is -8%.

`COc1ccc(-c2cc(C(=O)O)c3cnn(C(C)C)c3n2)cc1OC` [Compound Z56643618]: the “First screening IR (inhibition rate)” value is 9%. As for `CC(C)n1ncc2c(C(=O)O)cc(-c3ccc4c(c3)OCCO4)nc21` [Compound Z56643642], the “First screening IR (inhibition rate)” value amounted to 2%. Regarding `Cc1ccccc1-c1cc(C(=O)O)c2cnn(C(C)C)c2n1` [Compound Z56643722], the “First screening IR (inhibition rate)” value is 8%. Regarding `CC(C)c1noc2nc(-c3ccncc3)cc(C(=O)O)c12` [Compound Z56646434], the “First screening IR (inhibition rate)” value is given as -2%. In the case of `CCn1ncc2c(C(=O)O)cc(-c3ccccc3)nc21` [Compound Z56648330] it was -43%; in that of `CS(=O)(=O)NS(=O)(=O)CCCCCl` [Compound Z56755807], -15%; in that of `CCCCS(=O)(=O)C1CCS(=O)(=O)C1` (stereo not drawn) [Compound Z56757812], -9%. Turning to `Cc1ccc(S(=O)(=O)C2CS(=O)(=O)CC2O)cc1` (stereo not drawn) [Compound Z56757815], the “First screening IR (inhibition rate)” value is given as -3%. In the case of `O=S1(=O)CC(S(=O)(=O)c2ccccc2)C(S(=O)(=O)c2ccccc2)C1` (stereo not drawn) [Compound Z56757817] it was 15%; in that of `O=C(O)/C=C/c1cccc(NS(=O)(=O)/C=C/c2ccccc2)c1` [Compound Z56757962], 1%; in that of `CS(=O)(=O)C1(S(C)(=O)=O)CCCCC1` [Compound Z56758188], 14%. As for `O=S(=O)(c1ccc(Cl)cc1)C1(S(=O)(=O)c2ccc(Cl)cc2)CCCC1` [Compound Z56759577], the “First screening IR (inhibition rate)” value is -18%.

As for `N#CC(C#N)=CC1=C2OC(c3ccccc3)=CC(c3ccccc3)=C2CCC1` [Compound Z56760799], the “First screening IR (inhibition rate)” value is 14%. On to `Cc1cc(-c2ccccc2)cc2c3ccccc3c3ccccc3[n+]12.[O-][Cl+3]([O-])([O-])[O-]` [Compound Z56761787], for which the “First screening IR (inhibition rate)” value is recorded as 4%. In the case of `O=S1(=O)C=CC(Br)C1` (stereo not drawn) [Compound Z56764753] it was 3%; in that of `O=S1(=O)C=CCC1` [Compound Z56764769], 9%. For `O=c1c2ccc3c(=O)n4c5cccc6cccc(nc4c4ccc(c2c34)c2nc3ccccc3n12)c65` [Compound Z56768422], the “First screening IR (inhibition rate)” value is -6%.

For the compound `Nc1ncnc(Nc2ccccc2)n1` [Compound Z56768427], the “First screening IR (inhibition rate)” value was found to be 16%. In the case of `CCN(CC)CCC1S(=O)(=O)CC(c2ccccc2)CS1(=O)=O` (stereo not drawn) [Compound Z56768715] it was 8%. On to `CCN(CC)c1ccc(/C=C2\CCC(/C=N/NC(=O)NC3CCCCC3)=C2N2CCOCC2)cc1` [Compound Z56769590], for which the “First screening IR (inhibition rate)” value is given as -9%. For the compound `Nc1c2c(nc3sc4c(c13)CCCC4)-c1ccccc1CC2` [Compound Z56772171], the “First screening IR (inhibition rate)” value is recorded as -17%. For the compound `O=P(/C=C(\Cl)c1ccccc1)(/C=C(/Cl)c1ccccc1)Nc1cccc(S(=O)(=O)NCc2ccco2)c1` [Compound Z56773378], the “First screening IR (inhibition rate)” value is given as -1%. In the case of `CCOC(=O)/C(C#N)=C\C1=C2OC(c3ccccc3)=CC(c3ccccc3)=C2CCC1` [Compound Z56780975] it was -7%.

Consider `COC(=O)/C(=C\C1=C2OC(c3ccccc3)=CC(c3ccccc3)=C2CCC1)C(C)=O` [Compound Z56781644], for which the “First screening IR (inhibition rate)” value is on record as 7%. In the case of `CCN(CC)c1ccc2c(c1)OC(=O)N(c1ccc(Cl)c(Cl)c1)P2(=Nc1ccc(C)cc1)N(CC)CC` (stereo not drawn) [Compound Z56783141] it was -2%.

`Fc1ccc(/C=C2/CCCc3c2nc2ncnn2c3-c2ccc(F)cc2)cc1` [Compound Z56784264]: the “First screening IR (inhibition rate)” value was 8%. Under `C(=C1\CCCc2c1nc1ncnn1c2-c1ccccc1)/c1ccccc1` [Compound Z56784273] stands 0%; under `Brc1ccc(/C=C2/CCCc3c2nc2ncnn2c3-c2ccc(Br)cc2)cc1` [Compound Z56784274], 3%; under `Clc1ccc(/C=C2/CCCc3c2nc2ncnn2c3-c2ccc(Cl)cc2)cc1` [Compound Z56784275], -10%. Take `CCOC(=O)c1c(NC(=O)c2ccc(C(C)(C)C)cc2)n(CCCN2CCOCC2)c2nc3ccccc3nc12` [Compound Z56786201]: the “First screening IR (inhibition rate)” value is listed as 4%. Under `Nc1ncnc(Nc2ccc(Br)cc2)n1` [Compound Z56786772] stands 24%.

In the case of `CCN(CC)c1ccc(C(=O)NC(=S)Nc2nc(-c3cccs3)cs2)cc1` [Compound Z56787522], the “First screening IR (inhibition rate)” value was -9%. In the case of `Cc1ccc(-n2c(C)c(C=O)c3c2CCc2cn(-c4ccccc4)nc2-3)cc1` [Compound Z56788048], the “First screening IR (inhibition rate)” value is listed as -7%. In the case of `Cc1cc(C(=O)/C(C#N)=C2\C(=O)Nc3c(Cl)cc(Cl)cc32)c(C)n1-c1cccc(C(F)(F)F)c1` [Compound Z56789382] it was -23%; in that of `Cc1ccc2c(c1)/C(=N/n1cnc3ccccc31)C(=O)N2` [Compound Z56789395], 3%.
